Tests used:
[1] = biological target: T1, P. aeruginosa LpxC (Pseudomonas aeruginosa, UniProt P47205); experiment: P. aeruginosa LpxC Inhibition Assay (LC-MS/MS); assay type: biochemical; conditions: 1 nM P. aeruginosa LpxC, 30 min pre-incubation, 2 μM UDP-3-O-(R-3-hydroxydecanoyl)-GlcNAc, pH 7.5
T1 construct: made in house
T1 sequence (P47205 1-303): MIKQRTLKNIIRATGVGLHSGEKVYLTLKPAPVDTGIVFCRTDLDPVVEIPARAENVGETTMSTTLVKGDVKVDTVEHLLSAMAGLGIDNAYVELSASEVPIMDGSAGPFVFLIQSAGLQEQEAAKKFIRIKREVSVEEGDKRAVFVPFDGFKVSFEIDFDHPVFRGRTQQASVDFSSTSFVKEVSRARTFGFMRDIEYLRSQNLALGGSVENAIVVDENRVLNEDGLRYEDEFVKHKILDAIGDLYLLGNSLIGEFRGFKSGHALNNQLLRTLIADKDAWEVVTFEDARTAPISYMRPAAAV
From the text: P. aeruginosa LpxC Inhibition Assay
The P. aeruginosa LpxC protein is produced according to the general method of Hyland et al (Journal of Bacteriology 1997 179, 2029-2037: Cloning, expression and purification of UDP-3-O-acyl-GlcNAc deacetylase from Pseudomonas aeruginosa: a metalloamidase of the lipid A biosynthesis pathway). The LC-MS/MS method for quantitation of LpxC product was developed using an Agilent 1200 Capillary HPLC system coupled to an Applied Biosystems MDS Sciex 4000QTRAP mass spectrometer. Both instruments are controlled using the Applied Biosystems MDS Sciex Analyst software. LpxC reaction product (UDP-3-O—(R-3-hydroxyacyl)-glucosamine) was produced by hydrolysis of LpxC substrate catalyzed by P.a. LpxC and purified using reversed phase chromatography on a Phenomenex Luna C18(2) 4.6×50 mm column. An LpxC product calibration curve was generated to evaluate the sensitivity and dynamic range of the LC-MS/MS method. Briefly, compounds are pre-incubated with 1 nM P. aeruginosa LpxC for 30 min. at room temperature. Reactions are initiated by the addition of 2 μM UDP-3-O—(R-3-hydroxydecanoyl)-GlcNAc. Reactions are conducted in a 384-well plate with a total volume of 50 μL in each well containing 50 mM Sodium phosphate pH 7.5, 0.005% Trition X-100 for 20 min at room temperature. After quenching with 1.8% HOAc (5 μL of a 20% HOAc added to each well), reaction mixtures are analyzed using the LC-MS/MS method and peak areas are transformed into product concentration using a LpxC product calibration curve. Total activity (0% inhibition control) is obtained from reactions with no inhibitors and 100% inhibition control is the background using quenched samples before reaction starts. For IC50 determinations, peak areas are converted to percent inhibition in Microsoft Excel. Percent inhibition values are plotted vs. log compound concentration using XLfit. Data is fit to the four-parameter logistic equation using the non-linear regression algorithm in XLfit to return the IC50 and hill slope values.

[2] = system: P. A. PAO1 NB52019; experiment: MIC, broth microdilution (CLSI); assay type: cell-based, Pseudomonas aeruginosa; conditions: Pseudomonas aeruginosa, PAO1; broth microdilution, 35° C., 20 hours; read-out: P. A. PAO1 NB52019 MIC
Procedure: (§1) Bacterial isolates were cultivated from −70° C. frozen stocks by two consecutive overnight passages at 35° C. in ambient air on 5% blood agar (Remel, Lenexa, Kans.). Quality control strain, P. aeruginosa ATCC 27853, A. baumannii ATCC19606 and E. coli ATCC 25922 are from the American Type Culture Collection (ATCC; Rockville, Md.) and PAO1 was received from Dr. K. Poole.
(§2) Minimal Inhibitory Concentrations (MICs) were determined by the broth microdilution method in accordance with Clinical and Laboratories Institute (CLSI) guidelines (CLSI M100-S25, Performance Standards for Antimicrobial Susceptibility Testing; Twenty-fifth Informational Supplement). In brief, fresh bacterial overnight cultures were resuspended in sterile saline, adjusted to a 0.5 McFarland turbidity standard and then diluted 2000-fold in cation adjusted Mueller-Hinton Broth II (MHB; Remel BBL) to yield a final inoculum of approximately 5×10^5 colony-forming units (CFU)/mL. Two-fold serial dilutions of compounds were prepared in 100% dimethyl sulfoxide (DMSO) at 100-fold the highest final assay concentration; the resulting dilution series of compounds were diluted 1:10 with sterile water. Ten μl of the drug dilution series in 10% DMSO was transferred to microtiter wells and 90 μl of bacterial suspension was inoculated into the wells. For testing the ability of compounds to potentiate the activity of known antibiotics, the assay was modified as follows; known antibiotics were added to the bacterial inoculum at 1.1-fold the final assay concentration indicated in Table A. All inoculated microdilution trays were incubated in ambient air at 35° C. for 20 hours. Following incubation, assay plates were read in a microtiter plate reader at 600 nm and visually inspected to confirm the MIC endpoint well with the OD value. The lowest concentration of the compound that prevented visible growth was recorded as the MIC. Performance of the assay was monitored by testing ciprofloxacin against the laboratory quality control strain in accordance with guidelines of the CLSI.

[3] = system: E. C. ATCC 25922; experiment: MIC, broth microdilution (CLSI); assay type: cell-based, Escherichia coli; conditions: Escherichia coli, ATCC25922, 20 h, broth microdilution, 35° C., 20 hours; read-out: E. C. ATCC 25922 MIC
Procedure: as §1, §2

[4] = system: E. C. ATCC 29522; experiment: MIC in the presence of sub-inhibitory rifampicin (potentiation/synergy); assay type: cell-based, Escherichia coli; conditions: +2 μg/ml rifampicin (RIF); broth microdilution, 35° C., 20 hours
Procedure: as §1, §2

[5] = system: A. B. ATCC 19606; experiment: MIC, broth microdilution (CLSI); assay type: cell-based, Acinetobacter baumannii; conditions: Acinetobacter baumannii, ATCC19606; broth microdilution, 35° C., 20 hours; read-out: A. B. ATCC 19606 MIC
Procedure: as §1, §2

[6] = system: A. B. ATCC 19606; experiment: MIC in the presence of sub-inhibitory rifampicin (potentiation/synergy); assay type: cell-based, Acinetobacter baumannii; conditions: +2 μg/ml rifampicin (RIF); broth microdilution, 35° C., 20 hours
Procedure: as §1, §2

SMILES | IC50 [1] | MIC [2] | MIC [3] | E. C. ATCC 29522 (+2 μg/ml RIF) MIC [4] | MIC [5] | A. B. ATCC 19606 (+2 μg/ml RIF) MIC [6]
CCCC#Cc1cc(CC[C@](C)(C(=O)NO)S(C)(=O)=O)no1 [Compound 1.7, (R)—N-hydroxy-2-methyl-2-(methylsulfonyl)-4-(5-(pent-1-yn-1-yl)isoxazol-3-yl)butanamide] | < 1 nM | 0.25 µg/mL | 2 µg/mL | ≤0.06 µg/mL | > 64 µg/mL | 0.125 µg/mL
CC1(C#Cc2cc(CC[C@](C)(C(=O)NO)S(C)(=O)=O)no2)CC1 [Compound 1.8, (R)—N-hydroxy-2-methyl-4-(5-((1-methylcyclopropyl)ethynyl)isoxazol-3-yl)-2-(methylsulfonyl)butanamide] | < 1 nM | 0.25 µg/mL | 8 µg/mL | 0.25 µg/mL | > 64 µg/mL | ≤0.06 µg/mL
C[C@@](CCc1cc(C#CCCF)on1)(C(=O)NO)S(C)(=O)=O [Compound 1.9] | 3 nM | 1 µg/mL | 32 µg/mL | 0.125 µg/mL | > 64 µg/mL | 1 µg/mL
C[C@@](CCc1cc(C#CCCCF)on1)(C(=O)NO)S(C)(=O)=O [Compound 1.10, (R)-4-(5-(5-fluoropent-1-yn-1-yl)isoxazol-3-yl)-N-hydroxy-2-methyl-2-(methylsulfonyl)butanamide] | < 1 nM | 0.5 µg/mL | 8 µg/mL | 0.25 µg/mL | > 64 µg/mL | 0.25 µg/mL
C[C@@](CCc1cc(C#CCCC(F)F)on1)(C(=O)NO)S(C)(=O)=O [Compound 1.11, (R)-4-(5-(5,5-Difluoropent-1-yn-1-yl)isoxazol-3-yl)-N-hydroxy-2-methyl-2-(methylsulfonyl)butanamide] | 1 nM | 1 µg/mL | 32 µg/mL | 0.5 µg/mL | > 64 µg/mL | 1 µg/mL
C[C@@](CCc1cc(C#CC2CC(F)(F)C2)on1)(C(=O)NO)S(C)(=O)=O [Compound 1.12, (R)-4-(5-((3,3-difluorocyclobutyl)ethynyl)isoxazol-3-yl)-N-hydroxy-2-methyl-2-(methylsulfonyl)butanamide] | < 1 nM | 0.5 µg/mL | 16 µg/mL | 0.25 µg/mL | > 64 µg/mL | ≤0.06 µg/mL
CC(C)(O)CCC#Cc1cc(CC[C@](C)(C(=O)NO)S(C)(=O)=O)no1 [Compound 1.14, (R)—N-hydroxy-4-(5-(5-hydroxy-5-methylhex-1-yn-1-yl)isoxazol-3-yl)-2-methyl-2-(methylsulfonyl)butanamide] | 2 nM | 8 µg/mL | > 64 µg/mL | 16 µg/mL | > 64 µg/mL | ≤0.06 µg/mL
CC(C)(O)C1CC(C#Cc2cc(CC[C@](C)(C(=O)NO)S(C)(=O)=O)no2)C1 (stereo partly drawn) [Compound 1.16, (R)—N-hydroxy-4-(5-((3-(2-hydroxypropan-2-yl)cyclobutyl)ethynyl)isoxazol-3-yl)-2-methyl-2-(methylsulfonyl)butanamide] | < 1 nM | 2 µg/mL | 16 µg/mL | 4 µg/mL | > 64 µg/mL | 4 µg/mL
CC(CCc1cc(C#Cc2ccc(CO)cc2)on1)(C(=O)NO)S(C)(=O)=O (stereo not drawn) [Compound 2.1, N-hydroxy-4-(5-((4-(hydroxymethyl)phenyl)ethynyl)isoxazol-3-yl)-2-methyl-2-(methylsulfonyl)butanamide] | < 1 nM | 0.5 µg/mL | 2 µg/mL | ≤0.06 µg/mL | > 64 µg/mL | 2 µg/mL
CC(CCc1cc(C#Cc2ccc(CCO)cc2)on1)(C(=O)NO)S(C)(=O)=O (stereo not drawn) [Compound 2.2, N-hydroxy-4-(5-((4-(2-hydroxyethyl)phenyl)ethynyl)isoxazol-3-yl)-2-methyl-2-(methylsulfonyl)butanamide] | < 1 nM | 0.25 µg/mL | 0.25 µg/mL | ≤0.06 µg/mL | > 64 µg/mL | 0.5 µg/mL
COC(CO)c1ccc(C#Cc2cc(CCC(C)(C(=O)NO)S(C)(=O)=O)no2)cc1 (stereo not drawn) [Compound 2.3, N-hydroxy-4-(5-((4-(2-hydroxy-1-methoxyethyl)phenyl)ethynyl)isoxazol-3-yl)-2-methyl-2-(methylsulfonyl)butanamide] | < 1 nM | 0.5 µg/mL | 1 µg/mL | 0.125 µg/mL | > 64 µg/mL | 4 µg/mL
CC(CCc1cc(C#Cc2ccccc2)on1)(C(=O)NO)S(C)(=O)=O (stereo not drawn) [Compound 2.4, N-hydroxy-2-methyl-2-(methylsulfonyl)-4-(5-(phenylethynyl)isoxazol-3-yl)butanamide] | < 1 nM | 0.5 µg/mL | 0.5 µg/mL | ≤0.06 µg/mL | 64 µg/mL | ≤0.06 µg/mL

— US10029994B2, “Isoxazole hydroxamic acid compounds as LpxC inhibitors” (priority 2014, dated 2018)
